Measurements published in PubChem BioAssay AID2060626 (Molecular Pharmacology Branch, DTP, NCI, 2025).
Several values for one entry are separate records, joined by “and”; a condition that tells them apart may be missing. Equal values may be shown once. Values belong to the compound of their own block, whether it stands above or below them.

Test system: 168753-222-R-J1-PDC complex spheroid viability
Assay: Anticancer human tumor 168753-222-R-J1-PDC patient-derived bladder carcinoma cell line growth inhibition [CLK]
Details: for viability, T/C: stronger effect = lower value; for IC50: curve of first compound
Description: A high-throughput screen of multi-cell type tumor spheroids was designed to identify active combinations of […] and targeted small molecules. Complex spheroids include a stromal component modeled by human endothelial cells (HUVEC) and fibroblasts modeled by human mesenchymal stem cells (MSCs). The concentration ranges selected for each drug and investigational agent were based upon clinically achievable concentrations if the clinical Cmax of the agent was known.
Compounds. The drugs and investigational agents: cirtuvivint (SM08502; NSC835563), CC-671 (NSC850746), vemurafenib (NSC761431), tapotoclax (NSC804041), sotorasib (NSC818433), adagrasib (NSC831453), MRTX-1133 (NSC836407), BAY2416964 (NSC825713), copanlisib (NSC816437), inavolisib (NSC800729), abemaciclib (NSC768073), osimertinib (NSC779217), entinostat (NSC756642), eltanexor (KPT-8602, NSC794443), venetoclax (NSC766270), ceralasertib (NSC777638), bortezomib (NSC756655), olaparib (NSC753686), talazoparib (NSC767125), alisertib (NSC759677), peposertib (NSC802822), gemcitabine (NSC613327), 5-fluorouracil (NSC19893), SN-38 (NSC673596), oxaliplatin (NSC266046), paclitaxel (NSC125973), and doxorubicin (NSC123127), were obtained from the National Cancer Institute (NCI) Developmental Therapeutics Program Chemical Repository. The FDA-approved anticancer drug set is available from the Developmental Therapeutics Program at https://dtp.cancer.gov/organization/dscb/obtaining/available plates.htm. […] The stock solutions were prepared in dimethyl sulfoxide (DMSO, Sigma-Aldrich, St. Louis, MO, cat. D2650), except for the platinum complexes which were prepared in saline (Quality Biological, Gaithersburg, MD, cat. 114-055-101), at 800-fold the tested concentration and stored at -70 degrees C prior to their use. All drugs and investigational agents were tested over a range starting from a high concentration at or near the clinical Cmax and decreasing in half-log increments. If the clinical Cmax for an agent had not been determined, the highest concentration tested was 10 microM.
Cell Culture. All cells were maintained in an incubator at 37 degrees C and 5% CO2 with 95% humidity. The PDC lines were cultured according to standard operating procedures established by the NCI PDMR. Briefly, all PDCs were thawed and cultured in Matrigel-coated flasks prepared with a working solution of 1X Ham's F-12 nutrient mix, without supplementation (Invitrogen, Waltham, MA, cat. 11765054), 100 U/mL penicillin-streptomycin (Invitrogen, cat. 15140122), and 2.5% Matrigel (Corning Inc., Corning, NY, cat. 354248) for the first three passages. The 947758-054-R-J2-PDC line was cultured in 6B/Colon 1A media, which includes advanced DMEM/F-12 (Thermo Fisher Scientific, cat. 12634028), 10 mM HEPES (Thermo Fisher Scientific, cat. 15630080), 1X GlutaMAX supplement (Thermo Fisher Scientific, cat. 35050061), 0.1 mg/mL primocin (InvivoGen, cat. ant-pm-2), 10% defined fetal bovine serum, heat inactivated (HyClone Laboratories Inc., cat. SH30070.03HI), 1.25 mM N-Acetyl-L-cysteine (Sigma-Aldrich, cat. A9165), 10 mM nicotinamide (Sigma-Aldrich, cat. N0636), 1X B-27 supplement (Thermo Fisher Scientific, cat. 17504044), 1X N-2 supplement (Thermo Fisher Scientific, cat. 17502048), and 10 microM Y-27632 dihydrochloride (Tocris Bioscience, cat. 1254). The 876862-298-R-J1-PDC was cultured in 6E media, which includes all 6B/Colon 1A media components plus 50% L-WRN conditioned media (ATCC, cat. CRL-3276), 50 ng/mL recombinant human EGF recombinant protein (hEGF; Thermo Fisher Scientific, cat. PHG0311), 10 ng/mL recombinant human fibroblast growth factor 10 (hGFG-10; PeproTech, cat. 100-26), 1 ng/mL recombinant human fibroblast growth factor 2 (hFGF-2; PeproTech, cat. 100-18B), and 1 µM prostaglandin E2 (PGE2; Tocris, cat. 2296). The 227483-062-R1-J1-PDC line was cultured in Panc media, containing all 6E components except hFGF-2, with the addition of 500 nM SB-431542 (Selleckchem, cat. S1067) and 10 nM gastrin (Tocris, cat. 3006). […]

[1] = second compound 0.0316 µM, first compound 0.0316 µM
[2] = second compound 0.0316 µM, first compound 0.1 µM
[3] = second compound 0.0316 µM, first compound 0.316 µM
[4] = second compound 0.0316 µM, first compound 1 µM
[5] = second compound 0.0316 µM, first compound 3.16 µM
[6] = second compound 0.0316 µM, first compound 10 µM
[7] = second compound 0.1 µM, first compound 0.0316 µM
[8] = second compound 0.1 µM, first compound 0.1 µM
[9] = second compound 0.1 µM, first compound 0.316 µM
[10] = second compound 0.1 µM, first compound 1 µM
[11] = second compound 0.1 µM, first compound 3.16 µM
[12] = second compound 0.1 µM, first compound 10 µM
[13] = second compound 0.316 µM, first compound 0.0316 µM
[14] = second compound 0.316 µM, first compound 0.1 µM
[15] = second compound 0.316 µM, first compound 0.316 µM
[16] = second compound 0.316 µM, first compound 1 µM
[17] = second compound 0.316 µM, first compound 3.16 µM
[18] = second compound 0.316 µM, first compound 10 µM
[19] = second compound 1 µM, first compound 0.0316 µM
[20] = second compound 1 µM, first compound 0.1 µM
[21] = second compound 1 µM, first compound 0.316 µM
[22] = second compound 1 µM, first compound 1 µM
[23] = second compound 1 µM, first compound 3.16 µM
[24] = second compound 1 µM, first compound 10 µM
[25] = second compound 3.16 µM, first compound 0.0316 µM
[26] = second compound 3.16 µM, first compound 0.1 µM
[27] = second compound 3.16 µM, first compound 0.316 µM
[28] = second compound 3.16 µM, first compound 1 µM
[29] = second compound 3.16 µM, first compound 3.16 µM
[30] = second compound 3.16 µM, first compound 10 µM
[31] = second compound 10 µM, first compound 0.0316 µM
[32] = second compound 10 µM, first compound 0.1 µM
[33] = second compound 10 µM, first compound 0.316 µM
[34] = second compound 10 µM, first compound 1 µM
[35] = second compound 10 µM, first compound 3.16 µM
[36] = second compound 10 µM, first compound 10 µM
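Further: viability measured after seven days of drug exposure.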
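Wherever viability, T/C is given: luminescence signal used as surrogate for viable cell amount; 100% = DMSO vehicle control wells.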

Structure (SMILES): CCc1c2c(nc3ccc(O)cc13)-c1cc3c(c(=O)n1C2)COC(=O)[C@]3(O)CC
viability, T/C (compound 0.00316 µM): 86.5% and 95.1%
viability, T/C (compound 0.01 µM): 49.5% and 86.4%
viability, T/C (compound 0.0316 µM): 31.5% and 79.7%
viability, T/C (compound 0.1 µM): 32.8% and 59.9%
viability, T/C (compound 0.316 µM): 15.3% and 52.8%
viability, T/C (compound 1 µM): 12% and 15.8%

IC50 (second compound 0.0316 µM): 5880 nM
IC50 (second compound 0.1 µM): 5460 nM
IC50 (second compound 0.316 µM): 4110 nM
IC50 (second compound 1 µM): < 31.6 nM
IC50 (second compound 3.16 µM): < 31.6 nM
IC50 (second compound 10 µM): < 31.6 nM
Structure (SMILES): Nc1ccccc1NC(=O)c1ccc(CNC(=O)OCc2cccnc2)cc1 + CNC(=O)c1ccc(Nc2nc(OC3CCCC3)c3c(-c4ccc5nc(C)oc5c4)c[nH]c3n2)c(OC)c1
viability, T/C [1]: 99.1%
viability, T/C [2]: 101%
viability, T/C [3]: 90.6%
viability, T/C [4]: 90.6%
viability, T/C [5]: 84.4%
viability, T/C [6]: 21.6%
viability, T/C [7]: 98.8%
viability, T/C [8]: 84.8%
viability, T/C [9]: 85.8%
viability, T/C [10]: 82.9%
viability, T/C [11]: 81.2%
viability, T/C [12]: 15.4%
viability, T/C [13]: 80%
viability, T/C [14]: 68.7%
viability, T/C [15]: 62.2%
viability, T/C [16]: 78.3%
viability, T/C [17]: 63.1%
viability, T/C [18]: 6.28%
viability, T/C [19]: 33.9%
viability, T/C [20]: 39%
viability, T/C [21]: 36.5%
viability, T/C [22]: 41.4%
viability, T/C [23]: 44.7%
viability, T/C [24]: 4.99%
viability, T/C [25]: 27.1%
viability, T/C [26]: 22.3%
viability, T/C [27]: 29.8%
viability, T/C [28]: 41.7%
viability, T/C [29]: 25.7%
viability, T/C [30]: 3.07%
viability, T/C [31]: 19.5%
viability, T/C [32]: 21%
viability, T/C [33]: 28.1%
viability, T/C [34]: 27.5%
viability, T/C [35]: 21.1%
viability, T/C [36]: 0.71%

Structure (SMILES): Nc1ccn(C2OC(CO)C(O)C2(F)F)c(=O)n1 (stereo not given) + CN1CCN(c2cc(C(=O)Nc3cc4cc(-c5cnn(C)c5)ccc4cn3)ccn2)CC1
IC50 (second compound 0.0316 µM): 51.8 nM
IC50 (second compound 0.1 µM): 46 nM
IC50 (second compound 0.316 µM): < 31.6 nM
IC50 (second compound 1 µM): < 31.6 nM
IC50 (second compound 3.16 µM): < 31.6 nM
IC50 (second compound 10 µM): < 31.6 nM
viability, T/C [1]: 65.4%
viability, T/C [2]: 28.6%
viability, T/C [3]: 21.3%
viability, T/C [4]: 19%
viability, T/C [5]: 15.6%
viability, T/C [6]: 16%
viability, T/C [7]: 63.6%
viability, T/C [8]: 21.3%
viability, T/C [9]: 15.4%
viability, T/C [10]: 11.6%
viability, T/C [11]: 10.2%
viability, T/C [12]: 11.8%
viability, T/C [13]: 9.99%
viability, T/C [14]: 10.4%
viability, T/C [15]: 9.64%
viability, T/C [16]: 9.63%
viability, T/C [17]: 10.7%
viability, T/C [18]: 12%
viability, T/C [19]: 0.28%
viability, T/C [20]: 0.18%
viability, T/C [21]: 0.16%
viability, T/C [22]: 0.12%
viability, T/C [23]: 0.57%
viability, T/C [24]: 0.21%
viability, T/C [25]: 0.1%
viability, T/C [26]: 0.12%
viability, T/C [27]: 0.43%
viability, T/C [28]: 0.07%
viability, T/C [29]: 0.15%
viability, T/C [30]: 0.1%
viability, T/C [31]: 0.14%
viability, T/C [32]: 0.14%
viability, T/C [33]: 1.05%
viability, T/C [34]: 1.61%
viability, T/C [35]: 0.42%
viability, T/C [36]: 0.9%
